In patent US5126336A, “Antibiotic C-3 catechol-substituted cephalosporin compounds, compositions and method of use thereof” (Bristol-Myers Squibb Company, priority 1990, dated 1992):
Converted amounts (≈) assume the structure as drawn. Read-outs that look alike come from different tables or passages of the source.

Columns and labels:
Test in all cases: MIC, agar dilution
Assay type in all cases: cell-based
E. coli Juhl A15119 = conditions: Escherichia coli, JUHLA15119; E. coli Juhl A15119; Mueller-Hinton agar pH 7.2; 32° C., 18 hr; 10^6 cells/ml; read-out: MIC
Method in brief: (§1)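 MICs read after 18 hr at 32° C on Mueller-Hinton agar (pH 7.2) using two-fold serial dilutions and 10^6 cells/ml inoculum. Mouse infection model: intramuscular dosing immediately post-challenge, PD50 derived.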

P. aeruginosa A9843A = conditions: Pseudomonas aeruginosa, A9843A, 18 h, pH 7.2
Method in brief: as §1

S. aureus Smith = conditions: Staphylococcus aureus; S. aureus Smith; Mueller-Hinton agar pH 7.2; 32° C., 18 hr; 10^6 cells/ml; read-out: MIC
Method in brief: as §1

P. aeruginosa IPM-9 = conditions: Pseudomonas aeruginosa, IPM9, Mueller-Hinton agar pH 7.2, 32° C., 18 hr, 10^6 cells/ml
Description: (§2) Minimum inhibitory concentrations (MICs) of the present series of cephalosporins were determined against 32 strains of test organisms by two-fold serial agar dilution method in Mueller-Hinton agar. Geometric means of MICs were calculated against six groups of the test organisms which are classified as follows and summarized in Table 1.
(§3) Medium; MuellerHinton agar (pH = 7.2)
(§4) Incubation temperature: 32° C., 18 hr
(§5) Inoculum size; 10^6 cells/ml

S. marcescens IPM-16 = conditions: Serratia marcescens, IPM16, Mueller-Hinton agar pH 7.2, 32° C., 18 hr, 10^6 cells/ml
Description: as §2, §3, §4, §5

S. epidermidis 11-1230 = conditions: Staphylococcus epidermidis, 111230, Mueller-Hinton agar pH 7.2, 32° C., 18 hr, 10^6 cells/ml
Description: as §2, §3, §4, §5

P. rettgeri IPM-14 = conditions: Providencia rettgeri, IPM14, Mueller-Hinton agar pH 7.2, 32° C., 18 hr, 10^6 cells/ml
Description: as §2, §3, §4, §5

M. morgani 1510 = conditions: Mueller-Hinton agar pH 7.2, 32° C., 18 hr, 10^6 cells/ml
Description: as §2, §3, §4, §5

E. cloacae IPM-12 = conditions: Enterobacter cloacae, IPM12, Mueller-Hinton agar pH 7.2, 32° C., 18 hr, 10^6 cells/ml
Description: as §2, §3, §4, §5

P. aeruginosa IPM-8 = conditions: Pseudomonas aeruginosa, IPM8, Mueller-Hinton agar pH 7.2, 32° C., 18 hr, 10^6 cells/ml
Description: as §2, §3, §4, §5

P. aeruginosa KKA 19 = conditions: Pseudomonas aeruginosa, KKA19, Mueller-Hinton agar pH 7.2, 32° C., 18 hr, 10^6 cells/ml
Description: as §2, §3, §4, §5

E. faecium A24817 = conditions: Enterococcus faecium, Mueller-Hinton agar pH 7.2, 32° C., 18 hr, 10^6 cells/ml
Description: as §2, §3, §4, §5

X. maltophilia GN 12873 = conditions: Stenotrophomonas maltophilia, GN12873, Mueller-Hinton agar pH 7.2, 32° C., 18 hr, 10^6 cells/ml
Description: as §2, §3, §4, §5

S. marcescens IPM-15 = conditions: Serratia marcescens, IPM15, Mueller-Hinton agar pH 7.2, 32° C., 18 hr, 10^6 cells/ml
Description: as §2, §3, §4, §5

M. luteus 1001 = conditions: Micrococcus luteus, Mueller-Hinton agar pH 7.2, 32° C., 18 hr, 10^6 cells/ml
Description: as §2, §3, §4, §5

M. morgani 1510/9 = conditions: Mueller-Hinton agar pH 7.2, 32° C., 18 hr, 10^6 cells/ml
Description: as §2, §3, §4, §5

P. aeruginosa A20599 = conditions: Pseudomonas aeruginosa, Mueller-Hinton agar pH 7.2, 32° C., 18 hr, 10^6 cells/ml
Description: as §2, §3, §4, §5

E. faecalis A9808 = conditions: Enterococcus faecalis, Mueller-Hinton agar pH 7.2, 32° C., 18 hr, 10^6 cells/ml
Description: as §2, §3, §4, §5

P. mirabilis IFO-2849 = conditions: Proteus mirabilis, IFO2849, Mueller-Hinton agar pH 7.2, 32° C., 18 hr, 10^6 cells/ml
Description: as §2, §3, §4, §5

P. cepacia A21213 = conditions: Burkholderia cepacia, Mueller-Hinton agar pH 7.2, 32° C., 18 hr, 10^6 cells/ml
Description: as §2, §3, §4, §5

S. aureus 209P = conditions: Staphylococcus aureus
Description: as §2, §3, §4, §5

S. epidermidis 11-1168 = conditions: Staphylococcus epidermidis, 111168, Mueller-Hinton agar pH 7.2, 32° C., 18 hr, 10^6 cells/ml
Description: as §2, §3, §4, §5

C. freundii GN 7391 = conditions: Citrobacter freundii, GN7391, Mueller-Hinton agar pH 7.2, 32° C., 18 hr, 10^6 cells/ml
Description: as §2, §3, §4, §5

S. aureus 4-1015 (MRSA) = conditions: Staphylococcus aureus, Mueller-Hinton agar pH 7.2, 32° C., 18 hr, 10^6 cells/ml
Description: as §2, §3, §4, §5

P. vulgaris IPM-13 = conditions: Proteus vulgaris, IPM13, Mueller-Hinton agar pH 7.2, 32° C., 18 hr, 10^6 cells/ml
Description: as §2, §3, §4, §5

S. aureus IPM-24 (MRSA) = conditions: Staphylococcus aureus, Mueller-Hinton agar pH 7.2, 32° C., 18 hr, 10^6 cells/ml
Description: as §2, §3, §4, §5

B. subtilis PCI 219 = conditions: Bacillus subtilis, PCI219, Mueller-Hinton agar pH 7.2, 32° C., 18 hr, 10^6 cells/ml
Description: as §2, §3, §4, §5

K. pneumoniae PCI 602 = conditions: Klebsiella pneumoniae, PCI602, Mueller-Hinton agar pH 7.2, 32° C., 18 hr, 10^6 cells/ml
Description: as §2, §3, §4, §5

P. cepacia No. 651 = conditions: Burkholderia cepacia, Mueller-Hinton agar pH 7.2, 32° C., 18 hr, 10^6 cells/ml
Description: as §2, §3, §4, §5

E. coli 255 = conditions: Escherichia coli, Mueller-Hinton agar pH 7.2, 32° C., 18 hr, 10^6 cells/ml
Description: as §2, §3, §4, §5

X. maltophilia No. 661 = conditions: Stenotrophomonas maltophilia, Mueller-Hinton agar pH 7.2, 32° C., 18 hr, 10^6 cells/ml
Description: as §2, §3, §4, §5

C. terrigena IFO 12685 = conditions: Mueller-Hinton agar pH 7.2, 32° C., 18 hr, 10^6 cells/ml
Description: as §2, §3, §4, §5

SMILES | MIC (E. coli Juhl A15119) | MIC (P. aeruginosa A9843A) | MIC (S. aureus Smith) | MIC (P. aeruginosa IPM-9) | MIC (S. marcescens IPM-16) | MIC (S. epidermidis 11-1230) | MIC (P. rettgeri IPM-14) | MIC (M. morgani 1510) | MIC (E. cloacae IPM-12) | MIC (P. aeruginosa IPM-8) | MIC (P. aeruginosa KKA 19) | MIC (E. faecium A24817) | MIC (X. maltophilia GN 12873) | MIC (S. marcescens IPM-15) | MIC (M. luteus 1001) | MIC (M. morgani 1510/9) | MIC (P. aeruginosa A20599) | MIC (E. faecalis A9808) | MIC (P. mirabilis IFO-2849) | MIC (P. cepacia A21213) | further results
Nc1nc(/C(=N/O)C(=O)NC2C(=O)N3C(C(=O)O)=C(/C=C/Cn4ccc5cc(=O)c(O)cc-5c4)CS[C@H]23)cs1 (stereo partly shown) [Is, 7-[(Z)-2-(2-Aminothiazol-4-yl)-2-hydroxyiminoacetamido]-3-[(E)-3-(2,6-dihydro-7-hydroxy-6-oxo-isoquinolin-2-yl)-1-propen-1-yl]-3-cephem-4-carboxylic acid] | 0.2 µg/mL (≈ 0.352 µM) | > 100 µg/mL | 0.8 µg/mL (≈ 1.41 µM) | > 100 µg/mL | > 100 µg/mL | 3.1 µg/mL (≈ 5.45 µM) | 1.6 µg/mL (≈ 2.81 µM) | 12.5 µg/mL (≈ 22 µM) | > 100 µg/mL | > 100 µg/mL | > 100 µg/mL | 100 µg/mL (≈ 176 µM) | > 100 µg/mL | > 100 µg/mL | 0.4 µg/mL (≈ 0.703 µM) | 0.2 µg/mL (≈ 0.352 µM) | > 100 µg/mL | 6.3 µg/mL (≈ 11.1 µM) | 0.4 µg/mL (≈ 0.703 µM) | > 100 µg/mL | MIC (S. aureus 209P; S. aureus 209P, Mueller-Hinton agar pH 7.2, 32° C., 18 hr, 10^6 cells/ml, read-out: MIC): 0.8 µg/mL (≈ 1.41 µM); MIC (S. epidermidis 11-1168): 6.3 µg/mL (≈ 11.1 µM); MIC (C. freundii GN 7391): > 100 µg/mL; MIC (S. aureus 4-1015 (MRSA)): 3.1 µg/mL (≈ 5.45 µM); MIC (P. vulgaris IPM-13): > 100 µg/mL; MIC (S. aureus IPM-24 (MRSA)): 12.5 µg/mL (≈ 22 µM); MIC (B. subtilis PCI 219): 0.8 µg/mL (≈ 1.41 µM); MIC (K. pneumoniae PCI 602): 0.1 µg/mL (≈ 0.176 µM); MIC (P. cepacia No. 651): > 100 µg/mL; MIC (E. coli 255): 0.4 µg/mL (≈ 0.703 µM); MIC (X. maltophilia No. 661): > 100 µg/mL; MIC (C. terrigena IFO 12685): 1.6 µg/mL (≈ 2.81 µM)
Nc1nc(/C(=N/O)C(=O)NC2C(=O)N3C(C(=O)O)=C(/C=C/Cn4cnc5cc(O)c(O)cc54)CS[C@H]23)cs1 (stereo partly shown) [Ir, 7-[(Z)-2-(2-Aminothiazol-4-yl)-2-hydroxyiminoacetamido]-3-[(E)-3-(5,6-dihydroxybenzimidazol-1-yl)-1-propen-1-yl]-3-cephem-4-carboxylic acid] | 0.4 µg/mL (≈ 0.717 µM) | 6.3 µg/mL (≈ 11.3 µM) | 1.6 µg/mL (≈ 2.87 µM) | > 100 µg/mL | > 100 µg/mL | 12.5 µg/mL (≈ 22.4 µM) | 3.1 µg/mL (≈ 5.56 µM) | 25 µg/mL (≈ 44.8 µM) | > 100 µg/mL | 3.1 µg/mL (≈ 5.56 µM) | 12.5 µg/mL (≈ 22.4 µM) | > 100 µg/mL | > 100 µg/mL | 100 µg/mL (≈ 179 µM) | 0.8 µg/mL (≈ 1.43 µM) | 0.8 µg/mL (≈ 1.43 µM) | 12.5 µg/mL (≈ 22.4 µM) | 12.5 µg/mL (≈ 22.4 µM) | 0.8 µg/mL (≈ 1.43 µM) | > 100 µg/mL | MIC (S. aureus 209P; 209P, 18 h, pH 7.2): 3.1 µg/mL (≈ 5.56 µM); MIC (S. epidermidis 11-1168): 12.5 µg/mL (≈ 22.4 µM); MIC (C. freundii GN 7391): 50 µg/mL (≈ 89.7 µM); MIC (S. aureus 4-1015 (MRSA)): 12.5 µg/mL (≈ 22.4 µM); MIC (P. vulgaris IPM-13): > 100 µg/mL; MIC (S. aureus IPM-24 (MRSA)): 100 µg/mL (≈ 179 µM); MIC (B. subtilis PCI 219): 1.6 µg/mL (≈ 2.87 µM); MIC (K. pneumoniae PCI 602): 0.1 µg/mL (≈ 0.179 µM); MIC (P. cepacia No. 651): > 100 µg/mL; MIC (E. coli 255): 0.8 µg/mL (≈ 1.43 µM); MIC (X. maltophilia No. 661): > 100 µg/mL; MIC (C. terrigena IFO 12685): 3.1 µg/mL (≈ 5.56 µM)
